System: MV-4-11 cells
Test: Gene expression microarray analysis (Affymetrix PrimeView) and GSEA
Assay type: cell-based, human
Parameters: RFU PODN (11730768_x_at) / Fold change /veh PODN (11730768_x_at) / RFU LINC00158 (11744669_a_at) / Fold change /veh LINC00158 (11744669_a_at) / RFU DUSP10 (11751237_a_at) / Fold change /veh DUSP10 (11751237_a_at) / RFU ID3 (11757404_x_at) / Fold change /veh ID3 (11757404_x_at) / RFU PLEKHG5 (11737974_s_at) / Fold change /veh PLEKHG5 (11737974_s_at) / RFU LRRC4B (11730491_at) / Fold change /veh LRRC4B (11730491_at) / RFU GIMAP4 (11747438_a_at) / Fold change /veh GIMAP4 (11747438_a_at) / RFU KRT8 (11758183_x_at) / Fold change /veh KRT8 (11758183_x_at) / RFU CNN1 (11734310_a_at) / Fold change /veh CNN1 (11734310_a_at) / RFU VPS37D (11726825_at) / Fold change /veh VPS37D (11726825_at) / RFU C10orf10 (11716522_x_at) / Fold change /veh C10orf10 (11716522_x_at) / RFU KIR2DL2 /// KIR2DL4 /// KIR2DL5A /// KIR2DL5B /// KIR2DS1 /// KIR2DS2 /// KIR2DS3 /// KIR2DS4 /// KIR3DL3 /// KIR3DL3 /// KIR3DS1 (11738374_at) / Fold change /veh KIR2DL2 /// KIR2DL4 /// KIR2DL5A /// KIR2DL5B /// KIR2DS1 /// KIR2DS2 /// KIR2DS3 /// KIR2DS4 /// KIR3DL3 /// KIR3DL3 /// KIR3DS1 (11738374_at) / RFU C1QL1 (11718748_at) / Fold change /veh C1QL1 (11718748_at) / RFU TMPRSS4 (11747572_a_at) / Fold change /veh TMPRSS4 (11747572_a_at) / RFU HAMP (11756126_x_at) / Fold change /veh HAMP (11756126_x_at) / RFU RNFT2 (11725882_a_at) / Fold change /veh RNFT2 (11725882_a_at) / RFU NR4A2 (11747474_a_at) / Fold change /veh NR4A2 (11747474_a_at) / RFU ABCC12 (11746883_a_at) / Fold change /veh ABCC12 (11746883_a_at) / RFU TMEM136 (11760407_x_at) / Fold change /veh TMEM136 (11760407_x_at) / RFU CLDN22 /// WWC2 (11732394_at) / Fold change /veh CLDN22 /// WWC2 (11732394_at) / RFU HLA-DPB1 (11760878_x_at) / Fold change /veh HLA-DPB1 (11760878_x_at) / RFU SPINT1 (11716480_a_at) / Fold change /veh SPINT1 (11716480_a_at) / RFU GAP43 (11754022_s_at) / Fold change /veh GAP43 (11754022_s_at) / RFU A4GNT (11735810_at) / Fold change /veh A4GNT (11735810_at) / RFU PRB3 (11715151_x_at) / Fold change /veh PRB3 (11715151_x_at) / RFU TUBB4B (11761932_at) / Fold change /veh TUBB4B (11761932_at) / RFU CAPN14 (11732068_a_at) / Fold change /veh CAPN14 (11732068_a_at) / RFU TMCC2 (11721928_a_at) / Fold change /veh TMCC2 (11721928_a_at) / RFU IRGQ (11745062_a_at) / Fold change /veh IRGQ (11745062_a_at) / RFU FAM174B (11720279_a_at) / Fold change /veh FAM174B (11720279_a_at) / RFU TMPRSS4 (11748680_a_at) / Fold change /veh TMPRSS4 (11748680_a_at) / RFU FAM212B (11763350_a_at) / Fold change /veh FAM212B (11763350_a_at) / RFU PLEKHG5 (11743358_a_at) / Fold change /veh PLEKHG5 (11743358_a_at) / RFU ZSCAN30 (11745921_a_at) / Fold change /veh ZSCAN30 (11745921_a_at) / RFU CMKLR1 (11741424_a_at) / Fold change /veh CMKLR1 (11741424_a_at) / RFU LOC101060620 /// MAPK8IP1 (11723275_at) / Fold change /veh LOC101060620 /// MAPK8IP1 (11723275_at) / RFU SPTSSB (11747773_x_at) / Fold change /veh SPTSSB (11747773_x_at) / RFU PRSS12 (11739890_at) / Fold change /veh PRSS12 (11739890_at) / RFU BIN1 (11741810_x_at) / Fold change /veh BIN1 (11741810_x_at) / RFU WNT11 (11732464_a_at) / Fold change /veh WNT11 (11732464_a_at) / RFU C10orf10 (11716521_a_at) / Fold change /veh C10orf10 (11716521_a_at) / RFU C5orf56 (11738089_at) / Fold change /veh C5orf56 (11738089_at) / RFU CYB561 (11721691_x_at) / Fold change /veh CYB561 (11721691_x_at) / RFU ANKRD19P (11752326_a_at) / Fold change /veh ANKRD19P (11752326_a_at) / RFU OR2T12 /// OR2T33 /// OR2T8 (11738714_s_at) / Fold change /veh OR2T12 /// OR2T33 /// OR2T8 (11738714_s_at) / RFU VCAN (11748164_a_at) / Fold change /veh VCAN (11748164_a_at) / RFU JSRP1 (11732532_at) / Fold change /veh JSRP1 (11732532_at) / RFU KRTAP10-11 (11738290_x_at) / Fold change /veh KRTAP10-11 (11738290_x_at) / RFU MYO3A (11730013_a_at) / Fold change /veh MYO3A (11730013_a_at) / RFU EBF3 (11725865_a_at) / Fold change /veh EBF3 (11725865_a_at) / RFU CAMK2N1 (11719241_x_at) / Fold change /veh CAMK2N1 (11719241_x_at) / RFU C5orf56 (11738088_a_at) / Fold change /veh C5orf56 (11738088_a_at) / RFU OLFML3 (11715873_a_at) / Fold change /veh OLFML3 (11715873_a_at) / RFU LOC100653217 /// NTM (11731650_a_at) / Fold change /veh LOC100653217 /// NTM (11731650_a_at) / RFU MAPK11 (11762145_a_at) / Fold change /veh MAPK11 (11762145_a_at) / RFU FIZ1 (11724087_x_at) / Fold change /veh FIZ1 (11724087_x_at) / RFU OASL (11726364_x_at) / Fold change /veh OASL (11726364_x_at) / RFU SOX15 (11748057_x_at) / Fold change /veh SOX15 (11748057_x_at) / RFU CD79A (11719716_a_at) / Fold change /veh CD79A (11719716_a_at) / RFU HIST1H1D (11736915_at) / Fold change /veh HIST1H1D (11736915_at) / RFU CASKIN2 (11723855_a_at) / Fold change /veh CASKIN2 (11723855_a_at) / RFU LOC730098 (11760151_x_at) / Fold change /veh LOC730098 (11760151_x_at) / RFU OR4N2 (11742367_at) / Fold change /veh OR4N2 (11742367_at) / RFU PRRT2 (11749266_a_at) / Fold change /veh PRRT2 (11749266_a_at) / RFU SNX32 (11753110_a_at) / Fold change /veh SNX32 (11753110_a_at) / RFU CDHR5 (11726645_a_at) / Fold change /veh CDHR5 (11726645_a_at) / RFU RCAN1 (11760418_a_at) / Fold change /veh RCAN1 (11760418_a_at) / RFU FAM167A (11723789_a_at) / Fold change /veh FAM167A (11723789_a_at) / RFU FAM26E (11764081_at) / Fold change /veh FAM26E (11764081_at) / RFU ISYNA1 (11749810_s_at) / Fold change /veh ISYNA1 (11749810_s_at) / RFU ACY1 (11761880_at) / Fold change /veh ACY1 (11761880_at) / RFU 11764098_at / Fold change /veh 11764098_at / RFU SAMD14 (11745864_x_at) / Fold change /veh SAMD14 (11745864_x_at) / RFU NPB (11741838_a_at) / Fold change /veh NPB (11741838_a_at) / RFU TMPRSS6 (11731388_a_at) / Fold change /veh TMPRSS6 (11731388_a_at) / RFU KRTAP10-2 (11738614_at) / Fold change /veh KRTAP10-2 (11738614_at) / RFU ARHGAP8 /// PRR5-ARHGAP8 (11727945_x_at) / Fold change /veh ARHGAP8 /// PRR5-ARHGAP8 (11727945_x_at) / RFU KRTAP5-7 /// NADSYN1 (11734609_at) / Fold change /veh KRTAP5-7 /// NADSYN1 (11734609_at) / RFU RASL12 (11751679_a_at) / Fold change /veh RASL12 (11751679_a_at) / RFU CDKN2B (11736163_a_at) / Fold change /veh CDKN2B (11736163_a_at) / RFU PRF1 (11729649_at) / Fold change /veh PRF1 (11729649_at) / RFU, ZNF638 /// ZNF638-IT1 / Fold change vs veh, ZNF638 /// ZNF638-IT1 / RFU, PANK3 / Fold change vs veh, PANK3 / RFU, SH3YL1 / Fold change vs veh, SH3YL1 / RFU, ZEB2 / Fold change vs veh, ZEB2 / RFU, NRIP1 / Fold change vs veh, NRIP1 / RFU, PTTG1IP / Fold change vs veh, PTTG1IP / RFU, CAPN2 / Fold change vs veh, CAPN2 / RFU, MED14 / Fold change vs veh, MED14 / RFU, SNORA58 / Fold change vs veh, SNORA58 / RFU, C1orf63 / Fold change vs veh, C1orf63 / RFU, LRRFIP1 / Fold change vs veh, LRRFIP1 / RFU, NDUFAF7 / Fold change vs veh, NDUFAF7 / RFU, SLC12A2 / Fold change vs veh, SLC12A2 / RFU, IBTK / Fold change vs veh, IBTK / RFU, ESF1 / Fold change vs veh, ESF1 / Fold change vs veh, TMEM50B / RFU, TAOK1 / Fold change vs veh, TAOK1 / RFU, ACBD3 / Fold change vs veh, ACBD3 / RFU, TMA16 / Fold change vs veh, TMA16 / RFU, RWDD3 / Fold change vs veh, RWDD3 / RFU, BCAT1 / Fold change vs veh, BCAT1 / RFU, EDEM3 / Fold change vs veh, EDEM3 / RFU, TMEM33 / Fold change vs veh, TMEM33 / RFU, WDR75 / Fold change vs veh, WDR75 / RFU, AHCTF1 / Fold change vs veh, AHCTF1 / RFU, TFRC / Fold change vs veh, TFRC / RFU, ZDHHC17 / Fold change vs veh, ZDHHC17 / RFU, NOM1 / Fold change vs veh, NOM1 / RFU, ARL8B / Fold change vs veh, ARL8B / RFU, ZBTB11 / Fold change vs veh, ZBTB11 / RFU, TAMM41 / Fold change vs veh, TAMM41 / RFU, KIAA1704 /// LOC100996395 / Fold change vs veh, KIAA1704 /// LOC100996395 / RFU, ING1 / Fold change vs veh, ING1 / RFU, TRMT61B / Fold change vs veh, TRMT61B / RFU, FUBP3 / Fold change vs veh, FUBP3 / RFU, TP53 / Fold change vs veh, TP53 / RFU, TNKS2 / Fold change vs veh, TNKS2 / RFU, ZFP14 / Fold change vs veh, ZFP14 / RFU, ACTR2 / Fold change vs veh, ACTR2 / RFU, PPP3R1 / Fold change vs veh, PPP3R1 / RFU, PIK3R1 / Fold change vs veh, PIK3R1 / RFU, HNRNPA1 / Fold change vs veh, HNRNPA1 / RFU, RNF170 / Fold change vs veh, RNF170 / RFU, ZNF28 / Fold change vs veh, ZNF28 / RFU, RNGTT / Fold change vs veh, RNGTT / RFU, OGT / Fold change vs veh, OGT / RFU, BRD1 / Fold change vs veh, BRD1 / RFU, MARS / Fold change vs veh, MARS / RFU, ZNF655 / Fold change vs veh, ZNF655 / RFU, FAHD1 / Fold change vs veh, FAHD1 / RFU, BDP1 / Fold change vs veh, BDP1 / RFU, LRRCC1 / Fold change vs veh, LRRCC1 / RFU, ARID1A / Fold change vs veh, ARID1A / RFU, ZNF146 / Fold change vs veh, ZNF146 / RFU, ZNF330 / Fold change vs veh, ZNF330 / RFU, GPN3 / Fold change vs veh, GPN3 / RFU, C9orf123 / Fold change vs veh, C9orf123 / RFU, N4BP2L2 / Fold change vs veh, N4BP2L2 / RFU, ARFIP1 / Fold change vs veh, ARFIP1 / RFU, FAM179B / Fold change vs veh, FAM179B / RFU, BCL10 / Fold change vs veh, BCL10 / RFU, UHRF1BP1L / Fold change vs veh, UHRF1BP1L / RFU, BET1 / Fold change vs veh, BET1 / RFU, CNOT2 / Fold change vs veh, CNOT2 / RFU, ZNF268 / Fold change vs veh, ZNF268 / Fold change vs veh, ZNF507 / RFU, DGCR2 / Fold change vs veh, DGCR2 / RFU, WDSUB1 / Fold change vs veh, WDSUB1 / Fold change vs veh, HSP90B1 /// MIR3652 / RFU, ADSS / Fold change vs veh, ADSS / RFU, GK / Fold change vs veh, GK / RFU, ZNF148 / Fold change vs veh, ZNF148 / RFU, TAF9 / Fold change vs veh, TAF9 / RFU, SLC1A5 / Fold change vs veh, SLC1A5 / RFU, SLMO2 / Fold change vs veh, SLMO2 / RFU, ABCC4 / Fold change vs veh, ABCC4 / RFU, LOC101060439 /// RAP1B / Fold change vs veh, LOC101060439 /// RAP1B / RFU, RFX7 / Fold change vs veh, RFX7 / RFU, GTPBP10 / Fold change vs veh, GTPBP10 / RFU, CNEP1R1 / Fold change vs veh, CNEP1R1 / RFU, BIVM-ERCC5 /// ERCC5 / Fold change vs veh, BIVM-ERCC5 /// ERCC5 / RFU, ILF3 / Fold change vs veh, ILF3 / RFU 11762660_at / Fold change /veh 11762660_at / RFU VCAN (11757783_s_at) / Fold change /veh VCAN (11757783_s_at) / RFU DDX43 (11728927_at) / Fold change /veh DDX43 (11728927_at) / RFU KRT8 (11758188_x_at) / Fold change /veh KRT8 (11758188_x_at) / RFU NKD1 (11759106_at) / Fold change /veh NKD1 (11759106_at) / RFU SRD5A1 (11742802_a_at) / Fold change /veh SRD5A1 (11742802_a_at) / RFU TPSAB1 /// TPSB2 (11721975_s_at) / Fold change /veh TPSAB1 /// TPSB2 (11721975_s_at) / RFU GSTM3 (11746129_a_at) / Fold change /veh GSTM3 (11746129_a_at) / RFU IL23R (11737362_x_at) / Fold change /veh IL23R (11737362_x_at) / RFU TMEM51 (11727254_a_at) / Fold change /veh TMEM51 (11727254_a_at) / RFU PIWIL2 (11732686_x_at) / Fold change /veh PIWIL2 (11732686_x_at) / RFU ORM1 (11744905_x_at) / Fold change /veh ORM1 (11744905_x_at) / RFU CCDC152 (11743942_at) / Fold change /veh CCDC152 (11743942_at) / RFU ECM1 (11717891_a_at) / Fold change /veh ECM1 (11717891_a_at) / RFU IL23R (11748794_a_at) / Fold change /veh IL23R (11748794_a_at) / RFU TNFAIP8L3 (11732012_x_at) / Fold change /veh TNFAIP8L3 (11732012_x_at) / RFU MBOAT4 (11741988_at) / Fold change /veh MBOAT4 (11741988_at) / RFU 11764193_at / Fold change /veh 11764193_at / RFU TMEM53 (11763286_at) / Fold change /veh TMEM53 (11763286_at) / RFU MAGEB2 (11727129_at) / Fold change /veh MAGEB2 (11727129_at) / RFU TMEM200A (11744735_a_at) / Fold change /veh TMEM200A (11744735_a_at) / RFU CCDC152 (11751479_a_at) / Fold change /veh CCDC152 (11751479_a_at) / RFU FAM211A (11726209_a_at) / Fold change /veh FAM211A (11726209_a_at) / RFU RGS16 (11746705_a_at) / Fold change /veh RGS16 (11746705_a_at) / RFU VCAN (11755009_s_at) / Fold change /veh VCAN (11755009_s_at) / RFU RHOB (11743442_s_at) / Fold change /veh RHOB (11743442_s_at) / RFU RGS16 (11720943_a_at) / Fold change /veh RGS16 (11720943_a_at) / RFU RGS16 (11720944_at) / Fold change /veh RGS16 (11720944_at) / RFU, VPS4B / Fold change vs veh, VPS4B / RFU, CREB1 / Fold change vs veh, CREB1 / RFU, DNAJC13 / Fold change vs veh, DNAJC13 / RFU, GNAQ / Fold change vs veh, GNAQ / RFU, CDK5R1 / Fold change vs veh, CDK5R1 / RFU, ZRANB3 / Fold change vs veh, ZRANB3 / RFU, CUL4A / Fold change vs veh, CUL4A / RFU, CCNY / Fold change vs veh, CCNY / RFU, UFL1 / Fold change vs veh, UFL1 / RFU, COG3 / Fold change vs veh, COG3 / RFU, DIAPH2 / Fold change vs veh, DIAPH2 / RFU, SKA2 / Fold change vs veh, SKA2 / RFU, AFF3 / Fold change vs veh, AFF3 / RFU, LMF1 / Fold change vs veh, LMF1 / RFU, IPO11 / Fold change vs veh, IPO11 / RFU, DFFB / Fold change vs veh, DFFB / RFU, FOXP1 / Fold change vs veh, FOXP1 / RFU, CARD8 / Fold change vs veh, CARD8 / RFU, STRN3 / Fold change vs veh, STRN3 / RFU, ADK / Fold change vs veh, ADK / RFU, RASSF2 / Fold change vs veh, RASSF2 / RFU, WIPF1 / Fold change vs veh, WIPF1 / RFU, LARP1B / Fold change vs veh, LARP1B / RFU, RASA1 / Fold change vs veh, RASA1 / RFU, RB1 / Fold change vs veh, RB1 / RFU, PPFIA1 / Fold change vs veh, PPFIA1 / RFU, MAT2A / Fold change vs veh, MAT2A / RFU, CCT5 / Fold change vs veh, CCT5 / RFU, WDR92 / Fold change vs veh, WDR92 / RFU, CUX1 / Fold change vs veh, CUX1 / RFU, TTC7A / Fold change vs veh, TTC7A / RFU, TMEM135 / Fold change vs veh, TMEM135 / RFU, DEPTOR / Fold change vs veh, DEPTOR / RFU, CPM / Fold change vs veh, CPM / RFU, DNAJB6 / Fold change vs veh, DNAJB6 / RFU, CACNA2D3 / Fold change vs veh, CACNA2D3 / RFU, DTX4 / Fold change vs veh, DTX4 / RFU, TFCP2 / Fold change vs veh, TFCP2 / RFU, GMCL1 /// GMCL1P1 / Fold change vs veh, GMCL1 /// GMCL1P1 / RFU, AEBP2 / Fold change vs veh, AEBP2 / RFU, SNHG1 /// SNORD22 /// SNORD25 /// SNORD26 /// SNORD27 /// SNORD28 /// SNORD29 /// SNORD31 / Fold change vs veh, SNHG1 /// SNORD22 /// SNORD25 /// SNORD26 /// SNORD27 /// SNORD28 /// SNORD29 /// SNORD31 / Fold change (Aza/veh), C12orf56 (ProbeSet 11735607_a_at) / Fold change (ACY-1035/veh), C12orf56 (ProbeSet 11735607_a_at) / Fold change (Aza/veh), FGFR1OP (ProbeSet 11751329_s_at) / Fold change (ACY-1035/veh), FGFR1OP (ProbeSet 11751329_s_at) / Fold change (Aza/veh), VPS36 (ProbeSet 11739960_a_at) / Fold change (ACY-1035/veh), VPS36 (ProbeSet 11739960_a_at) / RFU SYPL1 (11715823_x_at) / Fold change /veh SYPL1 (11715823_x_at) / RFU IGFBP7 (11715501_s_at) / Fold change /veh IGFBP7 (11715501_s_at) / RFU REEP3 (11722064_at) / Fold change /veh REEP3 (11722064_at) / RFU IGLL1 (11728026_x_at) / Fold change /veh IGLL1 (11728026_x_at): dose or concentration left out as unconfirmed
Settings: MV-4-11 cells, 48 hours

Nc1ncn([C@@H]2O[C@H](CO)[C@@H](O)[C@H]2O)c(=O)n1 [azacitidine]
RFU PLEKHG5 (11743358_a_at): 38.46 RFU
